{"source": "ChEMBL document CHEMBL6071164", "about": "“9,10-Bis[(4-(2-hydroxyethyl)piperazine-1-yl)prop2-yne-1-yl]anthracene: G-Quadruplex Selectivity and Anticancer Activity” (ACS Med Chem Lett, 2024)", "key": {"A549": {"system": "A549", "experiment": "Cytotoxicity against human A549 cells assessed as reduction in cell viability incubated for 24 hrs by MTT assay", "assay_type": "functional, cell-based", "conditions": "A549, 24 h"}, "PC-9": {"system": "PC-9", "experiment": "Cytotoxicity against human PC-9 cells assessed as reduction in cell viability incubated for 24 hrs by MTT assay", "assay_type": "functional, cell-based", "conditions": "PC-9, 24 h"}, "NCI-H358": {"system": "NCI-H358", "experiment": "Cytotoxicity against human NCI-H358 cells assessed as reduction in cell viability incubated for 24 hrs by MTT assay", "assay_type": "functional, cell-based", "conditions": "NCI-H358, 24 h"}, "NCI-H460": {"system": "NCI-H460", "experiment": "Cytotoxicity against human NCI-H460 cells assessed as reduction in cell viability incubated for 24 hrs by MTT assay", "assay_type": "functional, cell-based", "conditions": "NCI-H460, 24 h"}, "NCI-H1975": {"system": "NCI-H1975", "experiment": "Cytotoxicity against human NCI-H1975 cells assessed as reduction in cell viability incubated for 24 hrs by MTT assay", "assay_type": "functional, cell-based", "conditions": "NCI-H1975, 24 h"}, "NCI-H1650": {"system": "NCI-H1650", "experiment": "Cytotoxicity against human NCI-H1650 cells assessed as reduction in cell viability incubated for 24 hrs by MTT assay", "assay_type": "functional, cell-based", "conditions": "NCI-H1650, 24 h"}, "[1]": {"experiment": "Cytotoxicity against human BEAS-2B cells assessed as reduction in cell viability incubated for 24 hrs by MTT assay", "assay_type": "toxicity, cell-based"}, "Quadruplex DNA [2]": {"system": "Quadruplex DNA", "experiment": "Binding affinity to wildtype Tel26 G4 DNA (5'-TTAGGGTTAGGGTTAGGGTTAGGGTT-3') (unknown origin) at 10:1 compound:DNA ratio incubated for 30 mins by ESI-MS analysis", "assay_type": "nucleic-acid assay"}, "Quadruplex DNA [3]": {"system": "Quadruplex DNA", "experiment": "Binding affinity to Tel23 G4 DNA (unknown origin) in PBS at pH 7.1 at 1.5 mM by wLOGSY analysis", "assay_type": "nucleic-acid assay"}}, "note": "pIC50: −log10 of the molar value. The source made the active and inactive calls. The calls are words filed in the database; no cut-off is given here."}
{"smiles": "OCCN1CCN(CC#Cc2c3ccccc3c(C#CCN3CCN(CCO)CC3)c3ccccc23)CC1", "values": [{"measurement": "pIC50", "setting": "A549", "value": 5.28}, {"measurement": "pIC50", "setting": "PC-9", "value": 5.60}, {"measurement": "pIC50", "setting": "NCI-H358", "value": 5.21}, {"measurement": "pIC50", "setting": "NCI-H460", "value": 5.72}, {"measurement": "pIC50", "setting": "NCI-H1975", "value": 5.49}, {"measurement": "pIC50", "setting": "NCI-H1650", "value": "< 5.00"}, {"measurement": "IC50 at 24 h", "setting": "[1]", "value": 1.07, "unit": "µM"}, {"measurement": "Activity", "setting": "Quadruplex DNA [2]", "value": "Active"}, {"measurement": "Activity", "setting": "Quadruplex DNA [3]", "value": "Active"}]}
